Columns and labels:
Format in all cases: in vivo
[1] = test system: rat model of inflammatory pain (formalin-injected paw); experiment: Formalin flinch test; settings: i.p.
Description: (§1) Inflammatory (Formalin flinch test) and chronic pain (L5/L6 nerve ligation injury) models were used as assays in both rats and mice.
Animals are habituated to the their local environment for about 30 min prior to testing. The formalin test is carried out in a 30×30×30 cm chamber with the front and bottom of the chambers made of clear plexi-glass. Mirrors are placed at a 45° angle under the chambers in order to have an un-obstructive view of the paws. Animals are restrained manually and 2% formalin (aq) is injected subcutaneously into the planar surface of the left paw with a 30 gauge needle. The numbers of paw flinches are then recorded in 5 min intervals from the time of injection for a 60 min period. Elevations of the paw, licking and biting of the injected paw were counted as “flinches”. The […] or “first phase” of the nociceptive response peaked at 5 min after formalin injection and the inflammatory or “second phase” peaked at 30 min after formalin injection. The number of flinches in the first 10 min were representative of the […] phase and the number of flinches from 10 min until 60 min were representative of the inflammatory phase. Antinociception for both phase I and phase II was calculated as follows: […]
Potency (A50) is calculated from the full dose response curve for both phase I and phase II.

[2] = test system: rat model of chronic pain (L5/L6 spinal nerve ligation); experiment: L5/L6 nerve ligation injury, tactile allodynia (von Frey)
Description: as §1
(§2) Nerve ligation injury was performed according to the method described previously (Kim and Chung). This methodology produces signs of tactile allodynia and thermal hyperalgesia. Rats were anesthetized with halothane and the L5 and L6 spinal nerves were exposed, carefully isolated, and tightly ligated with 4-0 silk suture distal to the dorsal root ganglia (DRG). After ensuring homeostatic stability the wounds were sutured, and the animals were allowed to recover in individual cages. Sham-operated rats were prepared in an identical fashion except that the L5 and L6 spinal nerves were not ligated. Compound 17 was tested in rats after L5/L6 nerve ligation. Compound administration was directly into the hind paw (i.paw) or into the peritoneal cavity (i.p.).
In the evaluation of the tactile allodynia, the paw withdrawal threshold was determined in response to probing with calibrated von Frey filaments. The rats were kept in suspended cages with wire mesh floors and the von Frey filaments were applied perpendicularly to the planar surface of the paw of the rat until it bent slightly, and was held for 3 to 6 s, or until the paw is withdrawn. […] The 50% paw withdrawal threshold was determined by the nonparametric method. […]

[3] = test system: rat model of chronic pain (L5/L6 spinal nerve ligation); experiment: L5/L6 nerve ligation injury, thermal hyperalgesia
Description: as §1, §2

NC(=O)CCCN(CCCC1CCCCC1)C(=O)Nc1ccccc1 [Compound 17, 4-[1-(3-cyclohexylpropyl)-3-phenylureido]butyramide]
A50 Formalin Phase I ([1]; phase I (first 10 min)): <0.01 mg/kg
A50 Formalin Phase II ([1]; phase II (10-60 min)): 0.01 mg/kg
antiallodynic effect ([2]; 100 μg (in 50 μl) into the paw): 90%
A50 L5/L6 antiallodynia ([2]; i.paw): <30 mg/paw
antihyperalgesic response to thermal testing ([3]; 30 μg (in 50 μl) into the paw): 100%
A50 L5/L6 antihyperalgesia ([3]; i.paw): <30 μg/paw

From US20100105777A1, “AMIDE OR THIOAMIDE DERIVATIVES AND THEIR USE IN THE TREATMENT OF PAIN” (CARA THERAPEUTICS, INC., priority 2004, published 2010)
